Columns and labels:
S. aureus ATCC 13709 = assay: MIC, NCCLS broth microdilution; assay type: cell-based, Staphylococcus aureus; conditions: A = S. aureus ATCC 13709 (MSSA)
Text: (§1) In vitro biological activity data were collected for a variety of microorganisms, including Staphylococcus aureus (ATCC 27660, a methicillin resistant strain (MRSA); ATCC 13709, a methicillin sensitive strain (MSSA)), Enterococcus faecalis (ATCC 29212), Bacillus cereus (ATCC 11778), Streptococcus pneumoniae (ATCC 49619), Candida albicans (ATCC 38247), Escherichia coli (ATCC 25922), and Moraxella (now Branhamella) catarrhalis (ATCC 25238).
(§2) The minimal inhibition concentration (MIC) of these compounds was determined using the National Committee for Clinical Laboratory Standards (NCCLS) broth microdilution assay in microtiter plates, as set forth in: (1) the guidelines of the National Committee for Clinical Laboratory Standards (NCCLS) Document M7-A4 (NCCLS, 1997); (2) the guidelines of the National Committee for Clinical Laboratory Standards (NCCLS) Document M11-A4 (NCCLS, 1997); and (3) the guidelines and reference method of the National Committee for Clinical Laboratory Standards (NCCLS) Document M27-T (NCCLS, 1995). For antifungal assays, the method recommended in Murray, P R., 1995 Manual of Clinical Microbiology (ASM Press, Washington, DC.), was employed.

S. aureus ATCC 27660 = assay: MIC, NCCLS broth microdilution; assay type: cell-based, Staphylococcus aureus; conditions: B = S. aureus ATCC 27660 (MRSA)
Text: as §1, §2

E. faecalis ATCC 29212 = assay: MIC, NCCLS broth microdilution; assay type: cell-based, Enterococcus faecalis; conditions: C = E. faecalis ATCC 29212
Text: as §1, §2

B. cereus ATCC 11778 = assay: MIC, NCCLS broth microdilution; assay type: cell-based, Bacillus cereus; conditions: D = B. cereus ATCC 11778
Text: as §1, §2

S. pneumoniae ATCC 49619 = assay: MIC, NCCLS broth microdilution; assay type: cell-based, Streptococcus pneumoniae; conditions: E = S. pneumoniae ATCC 49619
Text: as §1, §2

C. albicans ATCC 38247 = assay: MIC, antifungal assay; assay type: cell-based, Candida albicans; conditions: F = C. albicans ATCC 38247
Text: as §1, §2

E. coli ATCC 25922 = assay: MIC, NCCLS broth microdilution; assay type: cell-based, Escherichia coli; conditions: G = E. coli ATCC 25922
Text: as §1, §2

[1] = tested on: M. catarrhalis (ATCC 25238); assay: MIC, NCCLS broth microdilution; assay type: cell-based, Moraxella (now Branhamella) catarrhalis; conditions: H = M. catarrhalis (ATCC 25238)
Text: as §1, §2

Row | Structure (SMILES) | Minimum Inhibitory Concentration (MIC) (S. aureus ATCC 13709) | Minimum Inhibitory Concentration (MIC) (S. aureus ATCC 27660) | Minimum Inhibitory Concentration (MIC) (E. faecalis ATCC 29212) | Minimum Inhibitory Concentration (MIC) (B. cereus ATCC 11778) | Minimum Inhibitory Concentration (MIC) (S. pneumoniae ATCC 49619) | Minimum Inhibitory Concentration (MIC) (C. albicans ATCC 38247) | Minimum Inhibitory Concentration (MIC) (E. coli ATCC 25922) | Minimum Inhibitory Concentration (MIC) [1]
1 | Cn1cc(NC(=O)c2cc3ccccc3cn2)cc1C(=O)Nc1ccc(C(=O)Nc2cn(C)c(C(=O)NCCN3CCC(F)(F)CC3)n2)cc1 [Compound A-11] | +++ (MIC ≦ 4 μg/mL) | +++ (MIC ≦ 4 μg/mL) | +++ (MIC ≦ 4 μg/mL) | +++ (MIC ≦ 4 μg/mL) | +++ (MIC ≦ 4 μg/mL) | >32 µg/mL | >32 µg/mL | +++ (MIC ≦ 4 μg/mL)
2 | CN1CCN(CCNC(=O)c2nc(NC(=O)c3ccc(NC(=O)c4cc(NC(=O)c5cc6ccccc6cn5)cn4C)cc3)cn2C)CC1 [Compound A-12] | +++ (MIC ≦ 4 μg/mL) | +++ (MIC ≦ 4 μg/mL) | +++ (MIC ≦ 4 μg/mL) | +++ (MIC ≦ 4 μg/mL) | +++ (MIC ≦ 4 μg/mL) | >32 µg/mL | >32 µg/mL | +++ (MIC ≦ 4 μg/mL)
3 | CCN1CCN(CCNC(=O)c2nc(NC(=O)c3ccc(NC(=O)c4cc(NC(=O)c5cc6ccccc6cn5)cn4C)cc3)cn2C)CC1 [Compound A-13] | +++ (MIC ≦ 4 μg/mL) | +++ (MIC ≦ 4 μg/mL) | +++ (MIC ≦ 4 μg/mL) | +++ (MIC ≦ 4 μg/mL) | +++ (MIC ≦ 4 μg/mL) | >32 µg/mL | >32 µg/mL | +++ (MIC ≦ 4 μg/mL)
4 | CCCCN1CCN(CCNC(=O)c2nc(NC(=O)c3ccc(NC(=O)c4cc(NC(=O)c5cc6ccccc6cn5)cn4C)cc3)cn2C)CC1 [Compound A-14] | +++ (MIC ≦ 4 μg/mL) | +++ (MIC ≦ 4 μg/mL) | +++ (MIC ≦ 4 μg/mL) | +++ (MIC ≦ 4 μg/mL) | +++ (MIC ≦ 4 μg/mL) | >32 µg/mL | >32 µg/mL | +++ (MIC ≦ 4 μg/mL)
5 | CC(C)N1CCN(CCNC(=O)c2nc(NC(=O)c3ccc(NC(=O)c4cc(NC(=O)c5cc6ccccc6cn5)cn4C)cc3)cn2C)CC1 [Compound A-15] | +++ (MIC ≦ 4 μg/mL) | +++ (MIC ≦ 4 μg/mL) | +++ (MIC ≦ 4 μg/mL) | +++ (MIC ≦ 4 μg/mL) | +++ (MIC ≦ 4 μg/mL) | >32 µg/mL | >32 µg/mL | +++ (MIC ≦ 4 μg/mL)
6 | Cn1cc(NC(=O)c2cc3ccccc3cn2)cc1C(=O)Nc1ccc(C(=O)Nc2cn(C)c(C(=O)NCCN3CCCC3)n2)cc1 [Compound A-16] | +++ (MIC ≦ 4 μg/mL) | +++ (MIC ≦ 4 μg/mL) | +++ (MIC ≦ 4 μg/mL) | +++ (MIC ≦ 4 μg/mL) | +++ (MIC ≦ 4 μg/mL) | >32 µg/mL | +++ (MIC ≦ 4 μg/mL) | +++ (MIC ≦ 4 μg/mL)
7 | Cn1cc(NC(=O)c2cc3ccccc3cn2)cc1C(=O)Nc1ccc(C(=O)Nc2cn(C)c(C(=O)NCCN3CCCCC3)n2)cc1 [Compound A-17] | +++ (MIC ≦ 4 μg/mL) | +++ (MIC ≦ 4 μg/mL) | +++ (MIC ≦ 4 μg/mL) | +++ (MIC ≦ 4 μg/mL) | +++ (MIC ≦ 4 μg/mL) | + (12 ≦ MIC ≦ 32 μg/mL) | +++ (MIC ≦ 4 μg/mL) | +++ (MIC ≦ 4 μg/mL)
8 | Cn1cc(NC(=O)c2cc3ccccc3cn2)cc1C(=O)Nc1ccc(C(=O)Nc2cn(C)c(C(=O)NCCN3CCSCC3)n2)cc1 [Compound A-18] | +++ (MIC ≦ 4 μg/mL) | +++ (MIC ≦ 4 μg/mL) | +++ (MIC ≦ 4 μg/mL) | +++ (MIC ≦ 4 μg/mL) | +++ (MIC ≦ 4 μg/mL) | >32 µg/mL | >32 µg/mL | +++ (MIC ≦ 4 μg/mL)
9 | Cn1cc(NC(=O)c2cc3ccccc3cn2)cc1C(=O)Nc1ccc(C(=O)Nc2cn(C)c(C(=O)NCCN3CCC(O)CC3)n2)cc1 [Compound A-19] | +++ (MIC ≦ 4 μg/mL) | +++ (MIC ≦ 4 μg/mL) | +++ (MIC ≦ 4 μg/mL) | +++ (MIC ≦ 4 μg/mL) | +++ (MIC ≦ 4 μg/mL) | >32 µg/mL | + (12 ≦ MIC ≦ 32 μg/mL) | +++ (MIC ≦ 4 μg/mL)
10 | COC1CCN(CCNC(=O)c2nc(NC(=O)c3ccc(NC(=O)c4cc(NC(=O)c5cc6ccccc6cn5)cn4C)cc3)cn2C)CC1 [Compound A-20] | +++ (MIC ≦ 4 μg/mL) | +++ (MIC ≦ 4 μg/mL) | +++ (MIC ≦ 4 μg/mL) | +++ (MIC ≦ 4 μg/mL) | +++ (MIC ≦ 4 μg/mL) | + (12 ≦ MIC ≦ 32 μg/mL) | +++ (MIC ≦ 4 μg/mL) | +++ (MIC ≦ 4 μg/mL)
11 | CCN(CCNC(=O)c1nc(NC(=O)c2ccc(NC(=O)c3cc(NC(=O)c4cc5ccccc5cn4)cn3C)cc2)cn1C)CCOC [Compound A-21] | +++ (MIC ≦ 4 μg/mL) | +++ (MIC ≦ 4 μg/mL) | +++ (MIC ≦ 4 μg/mL) | +++ (MIC ≦ 4 μg/mL) | +++ (MIC ≦ 4 μg/mL) | >32 µg/mL | >32 µg/mL | +++ (MIC ≦ 4 μg/mL)
12 | COCCN(CCNC(=O)c1nc(NC(=O)c2ccc(NC(=O)c3cc(NC(=O)c4cc5ccccc5cn4)cn3C)cc2)cn1C)CCOC [Compound A-22] | +++ (MIC ≦ 4 μg/mL) | +++ (MIC ≦ 4 μg/mL) | +++ (MIC ≦ 4 μg/mL) | +++ (MIC ≦ 4 μg/mL) | +++ (MIC ≦ 4 μg/mL) | >32 µg/mL | >32 µg/mL | +++ (MIC ≦ 4 μg/mL)

Source: US7642245B2, “Antibacterial compounds having a (pyrrole carboxamide)-(benzamide)-(imidazole carboxamide) motif” (Oscient Pharmaceuticals Corporation, priority 2002, dated 2010)
